Earlier results on two compounds are cited in patent US8999405B1 (priority 2013, dated 2015).

For series [1] the following is noted: alkaline nitrogenous base of nicotine.

The term pKa denotes the negative logarithm of the acid dissociation constant. As to `CN1CCC[C@H]1c1cccnc1` [nicotine I, 3-(1-methyl-2-pyrrolidinyl) pyridine], in series [1], the pKa was around 8.5.

For `CN1CCC[C@H]1c1cccnc1.O=C(O)c1ccccc1C(=O)O` [Phthalic], the “Solubility Alcohol” value (alcohol) is listed as “soluble”. The “Solubility Other” value (other solvent, named in the cell) is “insoluble: ether”. The “Solubility Water” value (water) was “soluble”.
